{"source": "patent US7776826B2", "about": "“Method for fostering bone formation and preservation” (Unigene Laboratories, Inc., priority 2004, dated 2010)", "key": {"Male Sprague-Dawley rats [1]": {"test_system": "Male Sprague-Dawley rats", "test": "pQCT analysis of left (ablated) and right (non-ablated) femoral shafts, Groups A-J", "assay_type": "in vivo, rat", "conditions": "for Left femoral shaft Total density mean / Left femoral shaft Trabecular density mean: ablated femur; for new trabecular bone formation in left femoral shaft, in words: bmx, pQCT; for Right femoral shaft Total density mean / Right femoral shaft Trabecular density mean: non-ablated femur (bmx on contralateral left femur)", "from_the_text": "FIG. 4 (a-d) are graphical representations of the results of Peripheral Quantitative Computerized Tomography (PQCT) analyses of, respectively, the left (ablated) and right (non-ablated) femoral shafts of the rats which are the subject of FIG. 3 above. FIGS. 4(a) and 4(b) illustrate the trabecular bone density observed in respectively, the left and right femoral shafts of these rats, whereas, FIGS. 4(c) and 4(d) illustrate the total bone density of the respective shafts. The meanings of the abbreviations used in FIGS. 4a-4d are identical to those described above with regard to FIG. 3 (a-e);\nAll of the data presented above are based on analyses carried out solely of the distal epiphysis portion of the rat femurs. Subsequently, however, to avoid the above-described drawbacks associated with reading the bone density at the level of the epiphysis, the inventors undertook to further analyze the remaining portions of the animals' femur bones and particularly, areas along the length of the cortical shaft. […] In the discussion which follows, directed to the results of these additional analyses, the reader is reminded that the bone marrow ablation (bmx) technique was practiced, in all cases, only on the left femur of the test animals. That is to say, there was no ablation of the marrow portion in the right femur. Thus, in the right femur views discussed below, wherein the illustration or graph relating to the right femur is labeled with the abbreviation “bmx”, etc. to describe the modality of treatment which the rat was subjected to, one should understand such labeling to mean that the view is of a right femur, or is of a graph which presents a value obtained pursuant to the analysis of such right femur, wherein the animal's corresponding left femur underwent a bone marrow ablation treatment in the manner described herein.\nFIG. 4 (a-d) graphically illustrate the formation of both trabecular bone and, to some extent, total bone, within the left femoral shaft in rats from the Groups described in Tables 1 and/or 2 above, wherein the left femur was subjected to a bmx (bone marrow ablation) treatment coupled with a concurrent and/or subsequent administration of one or more bone anabolic agents, including parathyroid hormone (PTH[1-34]-NH2) and one or more anti-resorptive agents such as salmon calcitonin. […] The effects of these last two combinations protects the significant initial bone formation induced by bmx, but not to the same extent as parathyroid hormone (PTH[1-34]-NH2) alone.\nFIGS. 4(b) and 4(d) are provided to illustrate the results obtained with the same animals' corresponding right femoral shafts, i.e, in which bone marrow ablation (bmx) was not performed. Little or no new bone formation was observed, i.e, the density remained substantially constant, since the only treatment received by the right femurs was due to the systemic administration of the bone anabolic agent. The agent(s) was administered for too short a period to have, by itself, any real positive effect on the bone density. In fact, the total bone density curve for the right femoral shaft presents a substantially straight line, which is attributable to the fact that the total density measurement includes a measurement of cortical bone. Furthermore, since the anabolic agent was not administered for a period sufficient to increase cortical bone density, the total density remained unchanged.\nThe table additionally includes the standard deviations (“sd”) for the values obtained for each analysis, which standard deviations are also indicated in FIG. 4 (a-d).\nThe results set forth in FIGS. 1, 2, 4, 5, 11 and 12 and the corresponding Tables, Nos. 1, 2, 3, 4, 5 and 6 discussed above were obtained with the use of a method for mechanically inducing increased osteoblast activity as illustrated in FIGS. 14A-14D. […]"}, "Male Sprague-Dawley rats [2]": {"test_system": "Male Sprague-Dawley rats", "test": "High resolution radiograms of left and right femurs, Groups A-J", "assay_type": "in vivo, rat", "conditions": "left femur with bmx, 21 days", "description": "FIG. 3 (a-e) present high resolution radiograms of, respectively, the left (ablated) and right (non-ablated) femurs of some of the rats described with regard to FIGS. 1 and 2 above. (See discussion below of Tables 1 and 2) The radiographs were taken three weeks (i.e., 21 days) following commencement of treatment. The rats were treated as follows: (a) control (i.e., no surgery); (b) sham (i.e., surgery without marrow ablation); (c) mechanical bone marrow ablation (bmx)+phosphate buffer saline (PBS) administration daily for 21 days; (d) bmx followed by parathyroid hormone (PTH[1-34]-NH2) administered daily for 21 days; and (e) bmx followed by parathyroid hormone (PTH[1-34]-NH2) administered daily for 7 days and then salmon calcitonin given daily from days 7-21. A marking of bmx with regard to a right (non-ablated) femur means that\nFIG. 3 presents a set of high resolution radiograms of the entire left and right femurs from rats taken from some of the groups A-J described above. In each of the views shown, the treatment modality is indicated in the lower left corner of the radiogram. The following abbreviations are used: Control=no surgery; Sham=surgery without any bone marrow ablation; BMX=bone marrow ablation; PBS=phosphate buffer saline; PTH=parathyroid hormone (PTH[1-34]-NH2); and CT= salmon calcitonin. […]"}}}
{"substance": "PTH[1-34]-NH2", "values": [{"measurement": "Left femoral shaft Total density mean", "setting": "Male Sprague-Dawley rats [1]; Day 0", "result": 726.1, "unit": "mg/mL"}, {"measurement": "Left femoral shaft Trabecular density mean", "setting": "Male Sprague-Dawley rats [1]; Day 0", "result": 21.4, "unit": "mg/mL"}, {"measurement": "Left femoral shaft Total density mean", "setting": "Male Sprague-Dawley rats [1]; Day 7", "result": 867.5, "unit": "mg/mL"}, {"measurement": "Left femoral shaft Trabecular density mean", "setting": "Male Sprague-Dawley rats [1]; Day 7", "result": 243.8, "unit": "mg/mL"}, {"measurement": "Left femoral shaft Total density mean", "setting": "Male Sprague-Dawley rats [1]; Day 14", "result": 968.7, "unit": "mg/mL"}, {"measurement": "Left femoral shaft Trabecular density mean", "setting": "Male Sprague-Dawley rats [1]; Day 14", "result": 465.4, "unit": "mg/mL"}, {"measurement": "Left femoral shaft Total density mean", "setting": "Male Sprague-Dawley rats [1]; Day 21", "result": 1046.7, "unit": "mg/mL"}, {"measurement": "Left femoral shaft Trabecular density mean", "setting": "Male Sprague-Dawley rats [1]; Day 21", "result": 511.2, "unit": "mg/mL"}, {"measurement": "new trabecular bone formation in left femoral shaft, in words", "setting": "Male Sprague-Dawley rats [1]", "result": "greatest formation of new trabecular bone"}, {"measurement": "Right femoral shaft Total density mean", "setting": "Male Sprague-Dawley rats [1]; Day 0", "result": 787.2, "unit": "mg/mL"}, {"measurement": "Right femoral shaft Trabecular density mean", "setting": "Male Sprague-Dawley rats [1]; Day 0", "result": 12.9, "unit": "mg/mL"}, {"measurement": "Right femoral shaft Total density mean", "setting": "Male Sprague-Dawley rats [1]; Day 7", "result": 848.2, "unit": "mg/mL"}, {"measurement": "Right femoral shaft Trabecular density mean", "setting": "Male Sprague-Dawley rats [1]; Day 7", "result": 1.5, "unit": "mg/mL"}, {"measurement": "Right femoral shaft Total density mean", "setting": "Male Sprague-Dawley rats [1]; Day 14", "result": 871, "unit": "mg/mL"}, {"measurement": "Right femoral shaft Trabecular density mean", "setting": "Male Sprague-Dawley rats [1]; Day 14", "result": 13.7, "unit": "mg/mL"}, {"measurement": "Right femoral shaft Total density mean", "setting": "Male Sprague-Dawley rats [1]; Day 21", "result": 864.8, "unit": "mg/mL"}, {"measurement": "Right femoral shaft Trabecular density mean", "setting": "Male Sprague-Dawley rats [1]; Day 21", "result": 10.7, "unit": "mg/mL"}, {"measurement": "bone growth on radiograms, in words", "setting": "Male Sprague-Dawley rats [2]", "result": "greatest bone growth"}]}
{"substance": "salmon calcitonin [CT, reference compound]", "values": [{"measurement": "Left femoral shaft Total density mean", "setting": "Male Sprague-Dawley rats [1]; Day 0", "result": 726.1, "unit": "mg/mL"}, {"measurement": "Left femoral shaft Trabecular density mean", "setting": "Male Sprague-Dawley rats [1]; Day 0", "result": 21.4, "unit": "mg/mL"}, {"measurement": "Left femoral shaft Total density mean", "setting": "Male Sprague-Dawley rats [1]; Day 7", "result": 833.6, "unit": "mg/mL"}, {"measurement": "Left femoral shaft Trabecular density mean", "setting": "Male Sprague-Dawley rats [1]; Day 7", "result": 232.2, "unit": "mg/mL"}, {"measurement": "Left femoral shaft Total density mean", "setting": "Male Sprague-Dawley rats [1]; Day 14", "result": 876.2, "unit": "mg/mL"}, {"measurement": "Left femoral shaft Trabecular density mean", "setting": "Male Sprague-Dawley rats [1]; Day 14", "result": 257, "unit": "mg/mL"}, {"measurement": "Left femoral shaft Total density mean", "setting": "Male Sprague-Dawley rats [1]; Day 21", "result": 833.2, "unit": "mg/mL"}, {"measurement": "Left femoral shaft Trabecular density mean", "setting": "Male Sprague-Dawley rats [1]; Day 21", "result": 163.5, "unit": "mg/mL"}, {"measurement": "new trabecular bone formation in left femoral shaft, in words", "setting": "Male Sprague-Dawley rats [1]", "result": "Beneficial results"}, {"measurement": "Right femoral shaft Total density mean", "setting": "Male Sprague-Dawley rats [1]; Day 0", "result": 787.2, "unit": "mg/mL"}, {"measurement": "Right femoral shaft Trabecular density mean", "setting": "Male Sprague-Dawley rats [1]; Day 0", "result": 12.9, "unit": "mg/mL"}, {"measurement": "Right femoral shaft Total density mean", "setting": "Male Sprague-Dawley rats [1]; Day 7", "result": 797.4, "unit": "mg/mL"}, {"measurement": "Right femoral shaft Trabecular density mean", "setting": "Male Sprague-Dawley rats [1]; Day 7", "result": 1.2, "unit": "mg/mL"}, {"measurement": "Right femoral shaft Total density mean", "setting": "Male Sprague-Dawley rats [1]; Day 14", "result": 821.9, "unit": "mg/mL"}, {"measurement": "Right femoral shaft Trabecular density mean", "setting": "Male Sprague-Dawley rats [1]; Day 14", "result": 10.9, "unit": "mg/mL"}, {"measurement": "Right femoral shaft Total density mean", "setting": "Male Sprague-Dawley rats [1]; Day 21", "result": 821.3, "unit": "mg/mL"}, {"measurement": "Right femoral shaft Trabecular density mean", "setting": "Male Sprague-Dawley rats [1]; Day 21", "result": 10.8, "unit": "mg/mL"}]}
